Experiments:
[1] = system: C. elegans
Description: C. elegans mobility test was performed using the Movement Tracker software (Mouchiroud, L. et al. Curr Protoc Neurosci 77, 8.37.1-8.37.21 (2016)). The experiments were repeated at least twice. Trigonelline treatment and experimental measurements were started at Day 1 of wild type N2 worm adulthood, in a regimen of chronic exposure till experiments termination.

[2] = system: C. elegans; conditions: 1 mM, day 8 and day 11 old worms, vs control (FIG. 7D)
Text: 45 to 60 worms per condition were manually scored for mobility after poking. Worms that were unable to respond to any repeated stimulation were scored as dead. […] Trigonelline treatment and experimental measurements were started at Day 1 of wild type N2 worm adulthood, in a regimen of chronic exposure til experiments termination.

[3] = system: C. elegans; conditions: 1 mM, chronic exposure from Day 1 adulthood, wild type N2 (FIG. 7A)
Description: Worm lifespan tests were performed using about 100 animals per condition and scored manually every other day. Trigonelline treatment and experimental measurements were started at Day 1 of wild type N2 worm adulthood, in a regimen of chronic exposure till experiments termination.

[4] = system: Human Skeletal Muscle Myotubes (HSMM); experiment: Colorimetric NAD+ quantification in differentiated human primary myoblasts; type: cell-based; conditions: 16 h, different doses (FIG. 4)
Description: After one day, the differentiation is induced by a medium change for 4 days. Cells were treated with synthetic trigonelline monohydrate (FIG. 4A) or with Fenugreek seed extract enriched in trigonelline containing 40.45% trigonelline (FIG. 4B) for 16 h at difference doses. NAD^+ was measured using colorimetric NAD^+ quantification assay (Biovision NAD^+/NADH Quantitation Colorimetric Kit #k337-100).

[5] = system: C57BL/6JRj male mice; experiment: Enzymatic NAD+ measurement in mouse liver after oral gavage; type: in vivo; conditions: equimolar of 300 mg/kg trigonelline, 120 minutes (FIG. 5)
Description: 10 weeks C57BL/6JRj male mice received trigonelline (sigma #T5509) or fenugreek seed extract enriched in trigonelline (40.45% trigonelline) by oral gavage (equimolar of 300 mg/kg trigonelline, n=8/group). After 120 minutes treatment, the liver was harvested and flash frozen in liquid nitrogen. NAD^+ was measured in liver using an enzymatic method adapted from Dall, M., et al., Mol Cell Endocrinol, 2018. 473: p. 245-256.

[6] = system: RW1596 (myo-3p::GFP) worms; conditions: 1 mM trigonelline chloride, 11 day old worms vs age matched control
Description: RW1596 (myo-3p::GFP) worms were collected at Day 1 (young adults) and at Day 11 (aged animals) for muscle integrity assessment. Worms were immobilized with tetramisole and analyzed by confocal microscopy, to assess the muscle fibers morphology shown by GFP fluorescence imaging. Trigonelline treatment with 1 mM trigonelline chloride and experimental measurements were started at Day 1 of wild type N2 worm adulthood, in a regimen of chronic exposure till experiments termination.

[7] = system: Human Skeletal Muscle Myotubes (HSMM); conditions: 500 μM, 6 h, relative to control, LC-MS (FIG. 2A)
Description: Human primary myoblasts from two different donors were seeded in 6 well plates at a density of 200′000 cells per well in skeletal muscle growth medium (SKM-M, AMSbio). After one day, the differentiation was induced by a medium change for 4 days using differentiation culture medium (Gibco No. 31330-028). Cells were treated with isotopically labelled trigonelline (^13C carbonyl; 3^2H on methyl) for 6 h.
Cell extracts were separated on a Vanquish UHPLC+focused LC system (Thermo Scientific) with a hydrophilic liquid chromatography (HILIC) iHILIC-Fusion(P) column (Hilicon) carrying the dimensions 150×2.1 mm, 5 μm and a guard column (iHILIC-fusion(P), Hilicon) in front. The separation of metabolites was achieved by applying a linear solvent gradient in normal phase at 0.25 mL/min flow rate and 35° C. of temperature.
The eluting metabolites were analyzed with an Orbitrap Fusion Lumos mass spectrometer (Thermo Scientific) with a heated electrospray ionization (H-ESI) source in positive and negative mode at a resolution of 60,000 at m/z of 200. Instrument control and data analysis were conducted using Xcalibur (Thermo Scientific).

[8] = system: C. elegans; conditions: 1 mM trigonelline chloride, day 8 old worms, vs control (FIG. 8)
Description: Absolute quantification of the mtDNA copy number in wild type N2 worms was performed by real-time PCR. Relative values for nduo-1, and act-1 were compared within each sample to generate a ratio representing the relative level of mitochondrial DNA per nuclear genome. The average of at least two technical repeats was used for each biological data point. Each experiment was performed on at least ten independent biological samples (individual worms). Trigonelline treatment with 1 mM trigonelline chloride and experimental measurements were started at Day 1 of wild type N2 worm adulthood, in a regimen of chronic exposure till experiments termination.

## C[n+]1cccc(C(=O)O)c1 [trigonelline chloride]
[1]; 1 mM (FIG. 7C)
  Distance travelled in advanced aging phase compared to control: significantly increased
[1]; 1 mM, from day 1 adulthood (FIG. 7B)
  Mean speed compared to the control: increased
[2]
  Stimulated mobility score (worms responsive to a physical stimulus): more responsive
[3]
  Increase in lifespan: 21%

## C[n+]1cccc(C(=O)O)c1.[OH-] [chemically synthesized trigonelline]
[4]
  NAD+ content compared to the control: significant increase
[5]
  NAD+ content in the liver compared to the control: significant increase

## C[n+]1cccc(C(=O)[O-])c1 [trigonelline, 1-methylpyridin-1-ium-3-carboxylate]
[6]
  Myofibrillar structure (GFP-tagged myosin): improved more organized myofibrillar structure
[7]
  NAD+ levels: enhancement
[8]
  Mitochondrial expression relative to nuclear expression (nduo-1/act-1, mt/nDNA): higher
